Experimental data as given in patent EP4775589A1, “PHARMACEUTICAL COMPOSITION COMPRISING A PEPTIDE OR A COMBINATION OF PEPTIDES AGONISTIC TO THE MAS, AT1 AND AT2 RECEPTORS” (Pontificia Universidad Católica de Chile, priority 2023, dated 2025).
Where a SMILES comes first, the peptide text is derived from it. [ ]: non-standard residue; d: D form.

Tested on: aortic rings pre-contracted with phenylephrine
Parameters: species or system Wistar Kyoto rats
Procedure: Ten-week-old male Wistar Kyoto rats were anesthetized with ketamine (35 mg/kg) and xylazine (7 mg/kg) administered intraperitoneally. The aortas were removed, dissected from the extravascular connective tissue, and cut into 3 mm long rings in fresh Krebs buffer pH 7.4 (KRB, 120 mM NaCl, 25 mM NaHCO3, 5 mM glucose, 4.8 mM KCI, 2.5 mM CaCl2, 1.2 mM MgSO4, […], and 1.2 mM KH2PO4) freshly bubbled with 5% CO2 in air. They were then mounted on a wire myograph (DMT 620M) and placed in an organ bath with KRB, pH 7.4 at 37°C with constant bubbling and equilibrated for 30 min at a tension of 1.5 g. The vasodilator response of ^DH^DF^DP^DH^DI^DY^DV^DR^DD^LD^LR^LV^LY^LI^LH^LP (SEQ ID NO: 1), which corresponds to a fusion of the angiotensin-(1-9) retro-enantio peptide (D-amino acids, N-terminal to C-terminal direction: ^DH^DF^DP^DH^DI^DY^DV^DR^DD (SEQ ID NO: 2)) and the angiotensin-(1-7) peptide (L-amino acids, N-terminal to C-terminal direction: ^LD^LR^LV^LY^LI^LH^LP (SEQ ID NO: 3) were evaluated in dose-response curves [10^-18 to 10^-4 M] to these molecules in baths with aortic rings pre-contracted with phenylephrine 10^-7 M. Carbacol (10^-6-10^-4 M) was used as a relaxation control. The peptides were added in cumulative concentrations to the baths when the vasoconstrictor response to phenylephrine reached its maximum level. […]

| EC50 | SMILES |
| --- | --- |
| 0.00509 nM | CC[C@@H](C)[C@@H](NC(=O)[C@@H](Cc1c[nH]cn1)NC(=O)[C@H]1CCCN1C(=O)[C@@H](Cc1ccccc1)NC(=O)[C@H](N)Cc1c[nH]cn1)C(=O)N[C@H](Cc1ccc(O)cc1)C(=O)N[C@@H](C(=O)N[C@H](CCCNC(=N)N)C(=O)N[C@H](CC(=O)O)C(=O)N[C@@H](CC(=O)O)C(=O)N[C@@H](CCCNC(=N)N)C(=O)N[C@H](C(=O)N[C@@H](Cc1ccc(O)cc1)C(=O)N[C@H](C(=O)N[C@@H](Cc1c[nH]cn1)C(=O)N1CCC[C@H]1C(=O)O)[C@@H](C)CC)C(C)C)C(C)C [HP16, ^DH^DF^DP^DH^DI^DY^DV^DR^DD^LD^LR^LV^LY^LI^LH^LP] |
| 0.0767 nM | CC[C@@H](C)[C@@H](NC(=O)[C@@H](Cc1c[nH]cn1)NC(=O)[C@H]1CCCN1C(=O)[C@@H](Cc1ccccc1)NC(=O)[C@H](N)Cc1c[nH]cn1)C(=O)N[C@H](Cc1ccc(O)cc1)C(=O)N[C@@H](C(=O)N[C@H](CCCNC(=N)N)C(=O)N[C@H](CC(=O)O)C(=O)O)C(C)C [RI-Ang-(1-9), ^DH^DF^DP^DH^DI^DY^DV^DR^DD] (H-[dH][dF][dP][dH][dI][dY][dV][dR][dD]-OH) |
